Molecular target: T1, EstR (Atu5211) (Agrobacterium fabrum, UniProt A9CLK2)
T1 construct: full length, non-tagged, pETBlue-2, E. coli BL21(DE3), heparin and Q-Sepharose columns
T1 sequence (A9CLK2 1-155): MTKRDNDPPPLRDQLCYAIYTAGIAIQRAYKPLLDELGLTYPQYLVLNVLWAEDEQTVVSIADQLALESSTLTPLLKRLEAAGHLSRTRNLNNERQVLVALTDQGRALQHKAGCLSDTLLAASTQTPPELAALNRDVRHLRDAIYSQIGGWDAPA
Assay: gel mobility shift: loss of EstR binding to […]-labelled 314-bp estR-estC promoter DNA
Conditions: 1 mM CHP; pH 7.0, 25 C; covalent (oxidation of sensing Cys16)

## CC(C)(OO)c1ccccc1 [CHP, cumene hydroperoxide]
  gel mobility shift: loss of EstR binding to 32P-labelled 314-bp estR-estC promot: prior CHP treatment of EstR prevented the repressor from binding to the promoter fragment

From PMC5201249, “Agrobacterium tumefaciens estC, Encoding an Enzyme Containing Esterase Activity, Is Regulated by EstR, a Regulator in the MarR Family” (PLoS ONE, 2016)
